According to US11298333B1, “Methods of reducing the risk of cardiovascular events in a subject” (Amarin Pharmaceuticals Ireland Limited, priority 2018, dated 2022):

Tested on: hypertriglyceridemic patients with cardiovascular disease or at high risk for cardiovascular disease
Test: REDUCE-IT: safety, treatment-emergent adverse events (incl. bleeding and gastrointestinal TEAEs)
[1] = gastrointestinal TEAE, Safety population N = 4089
[2] = gastrointestinal TEAE, number of patients, Safety population N = 4089
[3] = most frequent TEAEs (≥5%), N = 4089
[4] = no significant increase vs placebo
[5] = serious bleeding TEAE by preferred term, N = 4089
[6] = serious bleeding TEAE by preferred term, number of patients, N = 4089
[7] = serious bleeding TEAE, N = 4089
[8] = serious bleeding TEAE, number of patients, N = 4089
[9] = significantly higher than placebo

Description: Specification of Variables and Procedures: Safety assessments included adverse events, clinical laboratory measurements (chemistry, hematology), 12-lead ECGs, vital signs (systolic and diastolic blood pressure, heart rate, respiratory rate, and body temperature), weight, waist circumference, and physical examinations as per Study Procedures in Table 1. […] All laboratory test results were evaluated by the investigator as to their clinical significance. Any observations at physical examinations or laboratory values considered by the investigator to be clinically significant were considered an adverse event.
An adverse event can therefore be any unfavorable and/or unintended sign (including an abnormal laboratory finding), symptom, or disease temporally associated with the use of an investigational medication product, whether or not related to the investigational medication product. All adverse events, including observed or volunteered problems, complaints, or symptoms, were recorded on the appropriate CRF. Each adverse event was evaluated for duration, intensity, and causal relationship with the study medication or other factors.
Serious Adverse Events: A serious adverse event (SAE) is defined as an adverse event that meets any of the following criteria: • Results in death; • Is life-threatening—The term “life-threatening” in the definition of “serious” refers to an event in which the patient was at risk of death at the time of the event. […] Important medical events that may not result in death, be life threatening, or require hospitalization were considered an SAE when, based upon appropriate medical judgment, they may have jeopardized the patient and may have required medical or surgical intervention to prevent one of the outcomes listed above.
Adverse Events of Special Interest: Bleeding-related adverse events, glucose control (fasting blood glucose and HbA1c), and indicators of hepatic disorders (e.g., ALT or AST increases >3×ULN, total bilirubin increases of ≥2×ULN) were summarized separately and compared between treatment groups.
Analysis of Safety: All analyses of safety were conducted on the safety population, which was defined as all randomized patients. The safety assessment was based on the frequency of adverse events, physical exams, vital signs and safety laboratory tests. AEs with new onset during the study between the initiation of study drug and 30 days after the last dose of study drug for each patient was considered treatment-emergent (TEAEs). This included any AE with onset prior to initiation of study drug and increased severity after the treatment initiation.
This included overall incidence rates (regardless of severity and relationship to study drug), and incidence rates for moderate or severe adverse events. A summary of SAEs and adverse events leading to early discontinuation (for ≥30 days) were presented through data listings. Patients who restarted study drug were included in the summary of AEs leading to discontinuation. Safety laboratory tests and vital signs were summarized by post-treatment change from baseline for each of the parameters using descriptive statistics by treatment group. Those patients with significant laboratory abnormalities were identified in data listings. Additional safety parameters were summarized in data listings.

## CC/C=C\C/C=C\C/C=C\C/C=C\C/C=C\CCCC(=O)OCC [Icosapent Ethyl, eicosapentaenoic acid ethyl ester]
4 grams daily
  Overall adverse event rates compared with placebo: similar
N = 4089
  Positively Adjudicated Atrial Fibrillation/Flutter (hospitalization): 127 (3.1%) n (%)
  Serious TEAE (≥2%) Pneumonia: 105 (2.6%) n (%)
Safety population N = 4089
  Serious TEAE: 1252 (30.6%) n (%)
  Serious TEAE Leading to Death: 94 (2.3%) n (%)
  Serious TEAE Leading to Withdrawal of Study Drug: 88 (2.2%) n (%)
  Serious bleeding TEAE: Bleeding related disorders: 111 (2.7%) n (%)
  Serious bleeding TEAE: Central nervous system bleeding: 14 (0.3%) n (%)
  Serious bleeding TEAE: Gastrointestinal bleeding: 62 (1.5%) n (%)
  Serious bleeding TEAE: Other bleeding: 41 (1.0%) n (%)
  Subjects with at Least One TEAE: 3343 (81.8%) n (%)
  TEAE Leading to Withdrawal of Study Drug: 321 (7.9%) n (%)
[1]
  Constipation (TEAE), percentage of patients: (5.4%)
  Diarrhea (TEAE), percentage of patients: (9.0%)
  Gastroesophageal Reflux Disease (TEAE), percentage of patients: (3.0%)
  Gastrointestinal disorders (TEAE), percentage of patients: (33.0%)
  Nausea (TEAE), percentage of patients: (4.6%)
[2]
  Constipation (TEAE), patients: 221
  Diarrhea (TEAE), patients: 367
  Gastroesophageal Reflux Disease (TEAE), patients: 124
  Gastrointestinal disorders (TEAE), patients: 1350
  Nausea (TEAE), patients: 190
In vivo
  Treatment-emergent serious adverse events for bleeding, rate: 2.7%
Lower than placebo
  Rate of anemia (adverse event): 4.7%
  Rate of diarrhea (adverse event): 9%
  Rate of gastrointestinal adverse events: 33.0%
[3]
  TEAE Anemia: 191 (4.7%) n (%)
  TEAE Angina pectoris: 200 (4.9%) n (%)
  TEAE Arthralgia: 313 (7.7%) n (%)
  TEAE Atrial fibrillation: 215 (5.3%) n (%)
  TEAE Back pain: 335 (8.2%) n (%)
  TEAE Bronchitis: 306 (7.5%) n (%)
  TEAE Cataract: 233 (5.7%) n (%)
  TEAE Chest pain: 273 (6.7%) n (%)
  TEAE Constipation: 221 (5.4%) n (%)
  TEAE Cough: 241 (5.9%) n (%)
  TEAE Diarrhea: 367 (9.0%) n (%)
  TEAE Dizziness: 235 (5.7%) n (%)
  TEAE Dyspnea: 254 (6.2%) n (%)
  TEAE Fatigue: 228 (5.6%) n (%)
  TEAE Hypertension: 320 (7.8%) n (%)
  TEAE Influenza: 263 (6.4%) n (%)
  TEAE Nasopharyngitis: 314 (7.7%) n (%)
  TEAE Osteoarthritis: 241 (5.9%) n (%)
  TEAE Pain in extremity: 235 (5.7%) n (%)
  TEAE Peripheral edema: 267 (6.5%) n (%)
  TEAE Pneumonia: 263 (6.4%) n (%)
No significant difference in rates of serious adverse events versus placebo
  Tolerability: well tolerated
[4]
  Serious central nervous system bleeding, rate: 0.3%
  Serious gastrointestinal bleeding, rate: 1.5%
Only serious adverse event at frequency ≥2%
  Serious adverse event pneumonia, rate: 2.6%
[5]
  Aortic Aneurysm Rupture, percentage: (0.0%)
  Brain Contusion, percentage: (0.0%)
  Catheter Site Hemorrhage, percentage: (0.0%)
  Cerebral Hemorrhage, percentage: (0.0%)
  Cystitis Hemorrhagic, percentage: (0.0%)
  Diverticulitis Intestinal Hemorrhagic, percentage: (0.0%)
  Diverticulum Intestinal Hemorrhagic, percentage: (0.1%)
  Duodenal Ulcer Hemorrhage, percentage: (0.0%)
  Ecchymosis, percentage: (0.0%)
  Epistaxis, percentage: (0.2%)
  Esophageal Hemorrhage, percentage: (0.0%)
  Extravasation Blood, percentage: (0.0%)
  Gastric Hemorrhage, percentage: (0.0%)
  Gastric Ulcer Hemorrhage, percentage: (0.1%)
  Gastrointestinal Angiodysplasia Hemorrhagic, percentage: (0.0%)
  Gastrointestinal Hemorrhage, percentage: (0.6%)
  Genital Hemorrhage, percentage: (0.0%)
  Hemarthrosis, percentage: (0.0%)
  Hematemesis, percentage: (0.1%)
  Hematochezia, percentage: (0.0%)
  Hematoma, percentage: (0.0%)
  Hematuria, percentage: (0.2%)
  Hemoptysis, percentage: (0.0%)
  Hemorrhagic Anemia, percentage: (0.1%)
  Hemorrhagic Duodenitis, percentage: (0.0%)
  Hemorrhagic Transformation Stroke, percentage: (0.0%)
  Hemorrhoidal Hemorrhage, percentage: (0.1%)
  Hemothorax, percentage: (0.0%)
  Immune Thrombocytopenic Purpura, percentage: (0.0%)
  Intra-Abdominal Hemorrhage, percentage: (0.0%)
  Intracranial Hemorrhage, percentage: (0.0%)
  Large Intestinal Hemorrhage, percentage: (0.0%)
  Lower Gastrointestinal Hemorrhage, percentage: (0.1%)
  Mallory-Weiss Syndrome, percentage: (0.0%)
  Melaena, percentage: (0.1%)
  Menorrhagia, percentage: (0.0%)
  Mouth Hemorrhage, percentage: (0.0%)
  Pancreatitis Hemorrhagic, percentage: (0.0%)
  Peptic Ulcer Hemorrhage, percentage: (0.0%)
  Pericardial Hemorrhage, percentage: (0.0%)
  Post Procedural Hematoma, percentage: (0.0%)
  Post Procedural Hematuria, percentage: (0.0%)
  Post Procedural Hemorrhage, percentage: (0.1%)
  Rectal Hemorrhage, percentage: (0.2%)
  Renal Hemorrhage, percentage: (0.0%)
  Retinal Hemorrhage, percentage: (0.0%)
  Retroperitoneal Hematoma, percentage: (0.0%)
  Retroperitoneal Hemorrhage, percentage: (0.0%)
  Shock Hemorrhagic, percentage: (0.0%)
  Subarachnoid Hemorrhage, percentage: (0.0%)
  Subdural Hematoma, percentage: (0.2%)
  Subdural Hemorrhage, percentage: (0.0%)
  Traumatic Hematoma, percentage: (0.0%)
  Traumatic Intracranial Hemorrhage, percentage: (0.0%)
  Ulcer Hemorrhage, percentage: (0.0%)
  Upper Gastrointestinal Hemorrhage, percentage: (0.1%)
  Urinary Bladder Hemorrhage, percentage: (0.0%)
[6]
  Aortic Aneurysm Rupture, patients: 1
  Brain Contusion, patients: 0
  Catheter Site Hemorrhage, patients: 0
  Cerebral Hemorrhage, patients: 0
  Cystitis Hemorrhagic, patients: 2
  Diverticulitis Intestinal Hemorrhagic, patients: 0
  Diverticulum Intestinal Hemorrhagic, patients: 3
  Duodenal Ulcer Hemorrhage, patients: 2
  Ecchymosis, patients: 1
  Epistaxis, patients: 7
  Esophageal Hemorrhage, patients: 0
  Extravasation Blood, patients: 1
  Gastric Hemorrhage, patients: 1
  Gastric Ulcer Hemorrhage, patients: 3
  Gastrointestinal Angiodysplasia Hemorrhagic, patients: 1
  Gastrointestinal Hemorrhage, patients: 26
  Genital Hemorrhage, patients: 1
  Hemarthrosis, patients: 0
  Hematemesis, patients: 3
  Hematochezia, patients: 1
  Hematoma, patients: 1
  Hematuria, patients: 8
  Hemoptysis, patients: 1
  Hemorrhagic Anemia, patients: 4
  Hemorrhagic Duodenitis, patients: 0
  Hemorrhagic Transformation Stroke, patients: 1
  Hemorrhoidal Hemorrhage, patients: 3
  Hemothorax, patients: 1
  Immune Thrombocytopenic Purpura, patients: 0
  Intra-Abdominal Hemorrhage, patients: 1
  Intracranial Hemorrhage, patients: 0
  Large Intestinal Hemorrhage, patients: 1
  Lower Gastrointestinal Hemorrhage, patients: 5
  Mallory-Weiss Syndrome, patients: 1
  Melaena, patients: 3
  Menorrhagia, patients: 1
  Mouth Hemorrhage, patients: 0
  Pancreatitis Hemorrhagic, patients: 1
  Peptic Ulcer Hemorrhage, patients: 1
  Pericardial Hemorrhage, patients: 0
  Post Procedural Hematoma, patients: 1
  Post Procedural Hematuria, patients: 0
  Post Procedural Hemorrhage, patients: 5
  Rectal Hemorrhage, patients: 10
  Renal Hemorrhage, patients: 0
  Retinal Hemorrhage, patients: 1
  Retroperitoneal Hematoma, patients: 0
  Retroperitoneal Hemorrhage, patients: 1
  Shock Hemorrhagic, patients: 2
  Subarachnoid Hemorrhage, patients: 2
  Subdural Hematoma, patients: 9
  Subdural Hemorrhage, patients: 2
  Traumatic Hematoma, patients: 2
  Traumatic Intracranial Hemorrhage, patients: 0
  Ulcer Hemorrhage, patients: 1
  Upper Gastrointestinal Hemorrhage, patients: 3
  Urinary Bladder Hemorrhage, patients: 1
[7]
  Central Nervous System Bleeding (category), percentage: (0.3%)
  Gastrointestinal Bleeding (category), percentage: (1.5%)
  Other Bleeding (category), percentage: (1.0%)
  Patients with Bleeding-Related Disorders, percentage: (2.7%)
[8]
  Central Nervous System Bleeding (category), patients: 14
  Gastrointestinal Bleeding (category), patients: 62
  Other Bleeding (category), patients: 41
  Patients with Bleeding-Related Disorders, patients: 111
[9]
  Rate of atrial fibrillation (adverse event): 5.3%
  Rate of peripheral edema (adverse event): 6.5%
